Data on two molecules can be found in patent US11472781B2, “2-aminoaryl-5-aryloxazole analogs for the treatment of neurodegenerative diseases” (Southern Research Institute, priority 2018, dated 2022).

One data set is described as follows: In vivo PK (I.V./P.O.). Further details: species or system mice. To be noted: for half-life: male, CD1, mouse, plasma. How it is done: Before the studies above were initiated, congenic SOD1 G93A mice were dosed with 50 mg/kg of compound no. 1 and compound no. 2 via I.P. injection to rule out any toxicity issues prior to initiating the efficacy study (FIG. 4A-C).
The experiments will involve the administration of compounds to 5-6 week old CD1 male mice. Mice are dosed by either a 1 mg/kg IV bolus or 5 mg/kg oral gavage. Blood samples are collected by cardiac puncture at 0, 0.25, 0.5, 1, 2, 4, 6, 8, 12, and 24 hrs. There will be three mice per time point. Plasma concentration over time will be determined by LC/MS from which the standard PK parameters of clearance, volume of distribution, t1/2 and % F can be derived using WinNoLin software (Pharsight Inc.). This will require a total of 60 mice per compound. Plasma will be analyzed by reverse phase chromatography with MS/MS detection operating in the positive ion mode using multiple reaction monitoring using an internal standard and Applied Biosystems Analyst 1.4 software. Peak time (when maximum plasma drug concentration occurs), peak drug level [approximate maximum concentrations of drug in plasma (Cmax)] and t1/2 for drug elimination will be estimated for each tested compound. Bioavailability (F) will be calculated from the ratio of AUCPO/AUCIV and expressed as a percentage. To determine levels in brain, six additional mice will be dosed with 1 mg/kg I.V. and sacrificed at 0.25 and 1 hr. Brain and spinal cord samples will be collected at these two time points, quick frozen in an ice box and kept at −75±15° C. All samples will be weighed and homogenized with phosphate buffered saline (PBS) by brain weight (g) to PBS volume (mL) ratio 1:3 before analysis. The actual concentration is the detected value multiplied by the dilution factor.

The nature of another data set: Solubility. In kind it is physicochemical. To be noted: buffer, pH 7.4, aqueous buffer, kinetic from dmso stock. The source says: A standard panel of in vitro ADME assays will be utilized to assess drug-like properties of compounds and to inform subsequent in vivo PK studies. These assays include: (a) Permeability: MDCK (Madin Darby Canine Kidney) cells transfected with the MDR1 gene encoding for the multi-drug resistant transporter (Pgp) will be utilized to determine a compound's ability to permeate the membrane in apical to basolateral (A-B) and basolateral to apical (B-A) directions. The derived apparent permeability coefficient (Papp) provides an estimate of passive permeability; a ratio of Papp in the B-A/A-B direction gives an estimate of transporter efflux; (b) Solubility: Kinetic solubility is an important parameter for accurate determinations of the dose response. This is estimated using the shake flask method with a μSol Explorer (PION, Billerica, Mass.) at pH 7.4. Compounds are added as a DMSO solution to buffer. The average of two determinations at pH 7.4 will be reported. Solubility at pH 7.4 is relevant for in vitro assays; (c) Metabolic Stability: The potential for a high metabolic clearance compound is estimated using a liver microsome assay. […] The disappearance of the parent molecule is measured by liquid chromatography/mass spectroscopy (LC/MS) detection. […]

Data set [1] deals with SOD2. The data set is described as follows: Quantitative RT-PCR for SOD2 mRNA in SH-SY5Y neuroblastoma cells. In kind it is cell-based, human. The settings on record: 1 μM, 6 h. How it is done: Referring to FIG. 1A and FIG. 1B, SH-SY5Y neuroblastoma cells were treated with vehicle or compounds (1 μM) for 6 or 24 hours, and cells were collected for RNA isolation (Trizol method). Quantitative RT-PCR for Manganese superoxide dismutase (SOD2; FIG. 1A) or brain-derived neurotrophic factor (BDNF, exon 1; FIG. 1B) indicates short-term upregulation of SOD2 and BDNF and sustained upregulation of BDNF (n=3-4/group, one-way ANOVA followed by unpaired t-test; […]).
Referring to FIG. 6, treatment of SH-SY5Y neuroblastoma cells with compounds (1 μM, 6 h) induced SOD2 mRNA expression >2 fold, as detected by q-RT-PCR. N=4/group, mean+/−SEM, 2-way ANOVA, post-hoc t-test. *p<0.05).

A further data set deals with NF-κB. In words: High throughput assay for NF-κB reporter activity (luciferase) in stably transfected SH-SY5Y cells. In kind it is cell-based, human. To be noted: Homo sapiens. How it is done:
SH-SY5Y human neuroblastoma cell line was obtained from the American Tissue Culture collection (ATCC). A commercially available expression vector containing the NF-kB promoter enhancer region driving the firefly luciferase gene expression and a second plasmid containing the gene conferring resistance to blasticidin were used in a dual transfection approach to obtain a stable cell line. […] Luciferase activity was measured as a reporter of NF-kB activation using the Bright-Glo Luciferase assay kit (Cat. No. E2620, Promega, Madison, Wis.) according to the manufacturer's instructions. Cell viability was measured using the CellTiter-Glo Luminescent Cell Viability assay kit (Cat. No. G7572, Promega, Madison, Wis.) according to the manufacturer's instructions. Briefly, cells were equilibrated at room temperature for 30 min prior to the addition of Bright-Glo to the white opaque plates or CellTiter-Glo to the black clear bottom plates. A volume of assay buffer equal to the volume of cell media was added to each well and incubated for five min to allow complete cell lysis. All procedures were performed in the dark.

In data set [2] the test system is SOD2. The data set is described as follows: SOD2 protein expression and SOD activity in primary rat cortical cultures. In kind it is cell-based. The source says: N=3-6/group, mean+/−SEM, *p<0.05, **p<0.01, 2-way ANOVA, post-hoc t-test.
The test system of data set [3] is SOD1 G93A transgenic mouse. The data set is described as follows: Efficacy in the SOD1 G93A transgenic mouse model of ALS. To be noted: 25 mg/kg I.P. daily from day 96. Format: in vivo. How it is done: Briefly, Congenic SOD1-G93A mice were doced with up to 50 mg/kg of both compounds (IP) to evaluate any toxicity issues prior to initiating the efficacy study. Also, mice administered 20 mg of each compound had high plasma and brain levels at 30 minutes. Next, individually genotyped SOD1-G93A mice (Prize4life-Jackson Labs) were treated with each compound (25 mg/kg, IP) at disease onset (day 96). The treatment extended survival, reduced weight loss and improved the neurologic symptoms. […] The average weight within the groups before the treatment was similar.
While compounds which increase SOD2 expression and activity have potential utility in a number of neurodegenerative diseases involving ROS overproduction, it was decided to test these two compounds in a mouse model of ALS for a variety of reasons, including the evidence for oxidative stress in ALS (described above), the ability of these compounds to induce SOD2 in a motor neuron-like mouse cell line (NSC-34; FIG. 3B), and the availability of a mouse model with dysfunction in SOD1 (human SOD1 G93A transgenic mouse; Jackson Laboratory). The pilot experiment involved treating six wildtype and six SOD1 G93A transgenic males on the C57BL/6 background with 25 mg/kg compound no. 1 and compound no. 2 I.P. daily, beginning around disease onset (day 96; FIG. 4A and FIG. 4B). Mouse survival and behavioral phenotype were observed based on guidelines from “Working with ALS mice: JAX handbook,” using a 4-point severity score (FIG. 4C).
Referring to FIG. 4A and FIG. 4B, SOD1 G93A mice received daily IP injections of saline (control) or compounds (25 mg/kg) starting on day 96.
Referring. To FIG. 4C, progression from neurological score 1 was delayed only by compound no. 2 (2 day delay, +30%), progression to higher (worse) scores was delayed by both compounds. *P<0.05; **P<0.01, 2-way ANOVA.

Data set [4] in a line: Plasma and brain levels after I.P. dosing of SOD1 G93A mice. Format: in vivo. To be noted: 50 mg/kg I.P., within 30 minutes.
For data set [5], the system named is SOD2. The data set is described as follows: Quantitative RT-PCR for SOD2 mRNA in NSC-34 neuroblastoma cells. In kind it is cell-based, mouse. To be noted: NSC-34, 1 μM, 24 h.

The structures appear in SMILES notation. In brackets after ≈: the same amount, converted by molar mass. Read-outs that look alike come from different tables or passages of the source. Bounds are passed on as bounds.

By solubility is commonly meant the concentration that dissolves in the medium under given conditions. Read a low solubility as a poorly soluble substance. As for `O=C(O)c1cccc(-c2cnc(Nc3ccccc3F)o2)c1` [Compound 40, 3-(2-((2-Fluorophenyl)amino)oxazol-5-yl)benzoic Acid], the half-life in the data set “In vivo PK (I.V./P.O.)” (iv, 1 mg/kg, I.V., read-out: I.V. t1/2 (converted)) was 1.4 h. This molecule had an orally bioavailable in the data set “In vivo PK (I.V./P.O.)” (oral) of 16%. The solubility in the data set “Solubility” stood at 56 µM (≈ 16.7 µg/mL).
As usually defined, the EC50 is the concentration at which the effect is half-maximal. In the case of `Cc1cccnc1Nc1nc(-c2ccccn2)cs1` [Compound 2], the “SOD2 mRNA expression” value in the data set on SOD2 [1] (q-RT-PCR) is on record as roughly 2 fold. Besides, in the data set with SOD2 [1] (SH-SY5Y), the “SOD2 mRNA expression” value is listed as “induce SOD2”. In “In vivo PK (I.V./P.O.)” (I.V./P.O., 1 and 5 mg/kg, respectively), the oral bioavailability entry was “lack of oral bioavailability”. For the same molecule, the half-life in “In vivo PK (I.V./P.O.)” (I.V./P.O., 1 and 5 mg/kg, respectively, read-out: plasma half-life (t1/2)) was less than 0.0833 h. In addition, in the data set on NF-κB (24 h, read-out: Emax), the maximal fold induction amounted to 40. Also, in the data set on NF-κB (24 hr, read-out: EC50), the EC50 was 210 nM. For the same molecule, in the data set with SOD2 [2], the SOD2 protein expression entry is on record as “induce SOD2” and the SOD activity result is reported as “increase”. In data set [3], the “progression to higher (worse) neurological scores / score of 4” value was “delayed” and the survival result is reported as “significantly prolonged”. In data set [4], the “plasma and brain levels” value is “substantial plasma and brain levels”. Besides, the “SOD2 mRNA expression” value with SOD2 [5] is “induce SOD2”.
